{"source": "patent US12378227B2", "about": "“Therapeutic cocrystals of 3-{[5-(azetidine-1-ylcarbonyl)pyrazin-2-yl]oxy}-5-{[(1S)-1-methyl-2-(methyloxy)ethyl]oxy)-N-(5-methylpyrazin-2-yl)benzamide” (CONDUIT UK MANAGEMENT LTD, priority 2021, dated 2025)", "key": {"[1]": {"test": "Polymorphism study (preparation methods 1 and 2 in different solvents)", "assay_type": "physicochemical", "settings": "methods 1 and 2 using 2-propanol, ethyl acetate, acetonitrile, methyl ethyl ketone and water", "experimental": "(§1) As AZD1656 is known to exist in six different crystalline forms an investigation was carried out to examine whether Cocrystal 1 could also exist in multiple polymorphic forms. Preparation methods 1 and 2 described above were carried out using 2-propanol, ethyl acetate, acetonitrile, methyl ethyl ketone and water.\nas §1, with “Cocrystal 2” for “Cocrystal 1”"}, "[2]": {"test": "Solid-state stability study, ambient conditions, 12 months", "assay_type": "physicochemical", "settings": "clear glass vial", "experimental": "A second stability study was carried out where 50 mg each of Cocrystal 1, Cocrystal 2, Cocrystal 3, Cocrystal 4, and Cocrystal 5A were separately placed in a clear glass vial which was then stored under ambient conditions for 12 months. After this time all the cocrystals remained as white solids with no signs of colour change."}, "[3]": {"test": "Dry milling in ball mill, assessed by eye and by XRPD", "assay_type": "physicochemical", "settings": "dry milled, Retsch MM400 ball mill, 2×15 min at 30 Hz, stainless-steel jar", "source_text": "In order to prepare cocrystal samples of similar particle size for a dissolution study and to assess the impact of milling on the crystallinity of the cocrystals, Cocrystal 1, Cocrystal 2, Cocrystal 3, Cocrystal 4 and Cocrystal 5a were dry milled using a ball mill. WO 2012/007758 discloses that to achieve satisfactory dissolution of the benzamide compound particle size reduction was required. […] Thus, a solid form of the benzamide compound that could undergo particle size reduction with an efficient recovery rate without the need to use a co-milling excipient is beneficial. The milled cocrystals, Cocrystal 1, Cocrystal 2, Cocrystal 3, Cocrystal 4 and Cocrystal 5a, were therefore assessed by eye for any potential agglomeration issues or excessive sticking to the walls of the milling vessel that might indicate potential adhesion/cohesion issues such as those of the pure benzamide compound.\n200 mg each of Cocrystal 1, Cocrystal 2, Cocrystal 3, Cocrystal 4 and Cocrystal 5a were separately placed in a 25 ml stainless-steel milling jar containing a 1 cm stainless steel ball bearing. Each benzamide cocrystal of the invention was dry milled in a Retsch MM400 ball mill for 2×15 min at 30 Hz. The product was assessed by eye and by XRPD."}, "[4]": {"test": "Solid-state stability study, accelerated storage 40° C./75% RH, 3 months", "assay_type": "physicochemical", "settings": "sealed container", "experimental": "A study was carried out to examine the physical stability of the benzamide cocrystals of the invention with respect to solid form conversion or signs of decomposition over time under both ambient and accelerated conditions. 50 mg each of Cocrystal 1, Cocrystal 2, Cocrystal 4, and Cocrystal 5A were separately placed in a sealed container at 40° C. and 75% relative humidity and stored under these conditions for 3 months. After this time all samples remained unchanged in appearance with no signs of deliquescence and no signs of any colour change."}, "[5]": {"settings": "pure benzamide compound, as disclosed in WO 2012/007758; cited from earlier work"}}}
{"smiles": "COC[C@H](C)Oc1cc(Oc2cnc(C(=O)N3CCC3)cn2)cc(C(=O)Nc2cnc(C)cn2)c1.O=C(O)/C=C/C(=O)O", "note": "[Cocrystal 1, 1:1 benzamide fumaric acid]", "values": [{"measurement": "Polymorphic forms obtained", "setting": "[1]", "result": "single polymorphic form"}, {"measurement": "Appearance", "setting": "[2]", "result": "No change"}, {"measurement": "XRPD analysis (form change)", "setting": "[2]", "result": "No change"}, {"measurement": "Powder flow / agglomeration after milling (by eye)", "setting": "[3]", "result": "free-flowing powder with no obvious signs of agglomeration"}, {"measurement": "Recoverability from milling chamber / adhesion to walls (by eye)", "setting": "[3]", "result": "easily recoverable from the milling chamber with no excessive adhesion to the walls of the milling jar"}, {"measurement": "Signs of loss of crystallinity due to milling (XRPD)", "setting": "[3]", "result": "None"}, {"measurement": "Appearance", "setting": "[4]", "result": "No change"}, {"measurement": "XRPD analysis (form change)", "setting": "[4]", "result": "No change"}]}
{"smiles": "COC[C@H](C)Oc1cc(Oc2cnc(C(=O)N3CCC3)cn2)cc(C(=O)Nc2cnc(C)cn2)c1.O=C(O)/C=C\\C(=O)O", "note": "[Cocrystal 2, 1:1 benzamide maleic acid]", "values": [{"measurement": "Polymorphic forms obtained", "setting": "[1]", "result": "single polymorphic form"}, {"measurement": "Appearance", "setting": "[2]", "result": "No change"}, {"measurement": "XRPD analysis (form change)", "setting": "[2]", "result": "No change"}, {"measurement": "Powder flow / agglomeration after milling (by eye)", "setting": "[3]", "result": "free-flowing powder with no obvious signs of agglomeration"}, {"measurement": "Recoverability from milling chamber / adhesion to walls (by eye)", "setting": "[3]", "result": "easily recoverable from the milling chamber with no excessive adhesion to the walls of the milling jar"}, {"measurement": "Signs of loss of crystallinity due to milling (XRPD)", "setting": "[3]", "result": "None"}, {"measurement": "Appearance", "setting": "[4]", "result": "No change"}, {"measurement": "XRPD analysis (form change)", "setting": "[4]", "result": "No change"}]}
{"smiles": "COC[C@H](C)Oc1cc(Oc2cnc(C(=O)N3CCC3)cn2)cc(C(=O)Nc2cnc(C)cn2)c1.O=C(O)CC(=O)O", "note": "[Cocrystal 3, 1:1 benzamide malonic acid]", "values": [{"measurement": "Appearance", "setting": "[2]", "result": "No change"}, {"measurement": "XRPD analysis (form change)", "setting": "[2]", "result": "No change"}, {"measurement": "Powder flow / agglomeration after milling (by eye)", "setting": "[3]", "result": "free-flowing powder with no obvious signs of agglomeration"}, {"measurement": "Recoverability from milling chamber / adhesion to walls (by eye)", "setting": "[3]", "result": "easily recoverable from the milling chamber with no excessive adhesion to the walls of the milling jar"}, {"measurement": "Signs of loss of crystallinity due to milling (XRPD)", "setting": "[3]", "result": "None"}]}
{"smiles": "COC[C@H](C)Oc1cc(Oc2cnc(C(=O)N3CCC3)cn2)cc(C(=O)Nc2cnc(C)cn2)c1.O.O=C(O)C(O)C(O)C(=O)O", "note": "[Cocrystal 4, 1:1 benzamide L-tartaric acid hydrate]", "values": [{"measurement": "Appearance", "setting": "[2]", "result": "No change"}, {"measurement": "XRPD analysis (form change)", "setting": "[2]", "result": "No change"}, {"measurement": "Powder flow / agglomeration after milling (by eye)", "setting": "[3]", "result": "free-flowing powder with no obvious signs of agglomeration"}, {"measurement": "Recoverability from milling chamber / adhesion to walls (by eye)", "setting": "[3]", "result": "easily recoverable from the milling chamber with no excessive adhesion to the walls of the milling jar"}, {"measurement": "Signs of loss of crystallinity due to milling (XRPD)", "setting": "[3]", "result": "None"}, {"measurement": "Appearance", "setting": "[4]", "result": "No change"}, {"measurement": "XRPD analysis (form change)", "setting": "[4]", "result": "No change"}]}
{"smiles": "COC[C@H](C)Oc1cc(Oc2cnc(C(=O)N3CCC3)cn2)cc(C(=O)Nc2cnc(C)cn2)c1.O=C(O)c1cc(O)ccc1O", "note": "[Cocrystal 5A, 1:1 benzamide gentisic acid form 1]", "values": [{"measurement": "Appearance", "setting": "[2]", "result": "No change"}, {"measurement": "XRPD analysis (form change)", "setting": "[2]", "result": "No change"}, {"measurement": "Powder flow / agglomeration after milling (by eye)", "setting": "[3]", "result": "free-flowing powder with no obvious signs of agglomeration"}, {"measurement": "Recoverability from milling chamber / adhesion to walls (by eye)", "setting": "[3]", "result": "easily recoverable from the milling chamber with no excessive adhesion to the walls of the milling jar"}, {"measurement": "Signs of loss of crystallinity due to milling (XRPD)", "setting": "[3]", "result": "None"}, {"measurement": "Appearance", "setting": "[4]", "result": "No change"}, {"measurement": "XRPD analysis (form change)", "setting": "[4]", "result": "No change"}]}
{"smiles": "COC[C@H](C)Oc1cc(Oc2cnc(C(=O)N3CCC3)cn2)cc(C(=O)Nc2cnc(C)cn2)c1", "note": "[benzamide compound, 3-{[5-(azetidine-1-ylcarbonyl)pyrazin-2-yl]oxy}-5-{[(1S)-1-methyl-2-(methyloxy)ethyl]oxy}-N-(5-methylpyrazin-2-yl)benzamide]", "values": [{"measurement": "Adhesion on dry milling", "setting": "[5]", "result": "excessive adhesion to the stainless-steel walls of the milling vessel resulting in low recovery yields"}]}
